In PubChem BioAssay AID434951 (Broad Institute, 2010) one finds EC50 data, which are given here for 38 molecules.

The source made the active and inactive calls.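 The calls were made as follows: active = a fitted half-maximal concentration EC50 for the rise in nuclear signal no higher than ten times the top dose tested; inconclusive = flat fit with activity between 30% and 70%, or unusable fit; inactive = EC50 beyond ten times the top dose.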

A word on the EC50: it is the concentration at which the effect is half-maximal.

Sequence of Hypoxia-inducible factor 1-alpha (Homo sapiens) (Q16665 whole entry, looked up): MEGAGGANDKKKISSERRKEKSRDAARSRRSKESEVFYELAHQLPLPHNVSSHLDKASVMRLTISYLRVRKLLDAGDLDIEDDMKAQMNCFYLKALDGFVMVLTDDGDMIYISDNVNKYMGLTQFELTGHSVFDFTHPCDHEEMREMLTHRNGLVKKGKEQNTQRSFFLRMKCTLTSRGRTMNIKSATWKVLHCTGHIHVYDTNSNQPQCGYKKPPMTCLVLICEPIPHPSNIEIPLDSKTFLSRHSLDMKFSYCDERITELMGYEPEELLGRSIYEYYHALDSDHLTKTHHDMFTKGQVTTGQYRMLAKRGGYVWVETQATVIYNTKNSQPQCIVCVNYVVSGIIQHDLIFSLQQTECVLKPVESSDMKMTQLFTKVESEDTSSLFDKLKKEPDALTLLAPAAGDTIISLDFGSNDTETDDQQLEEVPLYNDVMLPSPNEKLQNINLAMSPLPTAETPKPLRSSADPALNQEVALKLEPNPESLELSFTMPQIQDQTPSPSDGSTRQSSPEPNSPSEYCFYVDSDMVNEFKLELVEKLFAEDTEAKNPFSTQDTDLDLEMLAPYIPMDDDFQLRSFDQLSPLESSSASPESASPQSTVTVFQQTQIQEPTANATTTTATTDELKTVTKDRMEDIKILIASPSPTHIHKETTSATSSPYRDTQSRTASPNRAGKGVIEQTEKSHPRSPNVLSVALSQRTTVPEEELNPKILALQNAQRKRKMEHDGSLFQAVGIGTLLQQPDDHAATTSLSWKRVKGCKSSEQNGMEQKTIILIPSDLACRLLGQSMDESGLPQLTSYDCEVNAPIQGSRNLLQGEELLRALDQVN

The assay has as its target Hypoxia-inducible factor 1-alpha (Homo sapiens) (UniProt Q16665). As to the kind of experiment: activators of HIF1alpha nuclear accumulation, confirmation, imaging, fluorescence, U2OS GFP-HIF1alpha (AID 434951). The settings on record: U2OS GFP-HIF1alpha nuclear intensity, high-content imaging.
For the molecule `CCCCCCn1nc(C(=O)Nc2nc3c(s2)CCCC3)c2ccccc2c1=O`, the EC50 was > 35 µM (inactive).

Regarding `C1CCC2(CC1)C1=C(CCCC1)Nc1nnnn12`, the EC50 was > 35 µM (inactive).

As to `Cc1nc2ccccc2n2c(-c3ccccc3)c3c(=O)n(C)c(=O)n(C)c3c12`, the EC50 was > 35 µM (inactive).

Consider `CCCNC(=O)c1cc(-c2ccco2)on1`, for which the EC50 is 5.66 µM.

As to `Nc1cc2c3c(cccc3c1)C(=O)N(CCN1CCCC1)C2=O`, the EC50 was 16.4 µM.

In the case of `CCn1ccnc1C(O)c1ccccc1OC` (stereo not drawn), the EC50 is > 35 µM (inactive).

Consider `Cc1cc(NC(c2cccnc2)c2ccc3cccnc3c2O)no1` (stereo not drawn), for which the EC50 is 23.3 µM.

Turning to `COc1ccc(C)cc1NC(=O)c1ccc(N(C)S(C)(=O)=O)cc1`, the EC50 is > 35 µM (inactive).

As for `Cc1ccc(C(=O)NC2CC3CCCC(C2)N3Cc2ccccc2)cc1` (stereo not drawn), the EC50 is > 35 µM (inactive).

Take `Cc1cc(S(=O)(=O)ON2C(=O)c3ccccc3C2=O)ccc1F`: the EC50 was 6.21 µM.

On to `O=C(O)c1ccccc1Nc1ccc([N+](=O)[O-])cc1C(=O)O`, for which the EC50 was > 35 µM (inactive).

For the molecule `COc1ccccc1N1CCN(Cc2ccc(O)c3ncccc23)CC1`, the EC50 was 5.41 µM.

For the molecule `CC(=O)Nc1c([N+](=O)[O-])cc(C)c(Cl)c1[N+](=O)[O-]`, the EC50 was > 35 µM (inactive).

For `N#CCC(=O)N/N=C/c1ccc(SCC(=O)Nc2ccccc2)o1`, the EC50 is > 35 µM (inactive).

In the case of `CCCCNc1nc(N)nc(-c2cc(Cl)ccc2O)n1`, the EC50 is > 35 µM (inactive).

`Oc1ccc(Cl)cc1CNCC1CCCO1` (stereo not drawn): the EC50 was > 35 µM (inactive).

Turning to `COc1ccc(NC(=O)C(=O)NNC(=O)c2ccc(Cl)cc2Cl)cc1`, the EC50 was > 35 µM (inactive).

Turning to `O=C(Nc1ccccc1)N(C1=NCCCCS1)c1cccc2ccccc12`, the EC50 is > 35 µM (inactive).

For `Cc1ccc2nc(-c3ccccn3)c(Nc3ccccc3C)n2c1`, the EC50 is 6.13 µM.

Turning to `Cn1c(=O)cc(C(=O)N/N=C/c2ccc(F)cc2)[nH]c1=O`, the EC50 was > 35 µM (inactive).

As to `CCN(CC)c1ccc(/C=N/NC(=O)c2nnn(-c3nonc3N)c2C(C)C)c(O)c1`, the concentration giving a half-maximal response (EC50) was 3.55 µM.

Consider `CCC1CCc2sc(C(=O)NCc3ccccn3)cc2C1` (stereo not drawn), for which the EC50 was > 35 µM (inactive).

Turning to `COc1cc2ccccc2cc1C(=O)Nc1ccc(C)cc1`, the EC50 was > 35 µM (inactive).

For `CN(C)/N=C/C=C1\CCC/C(=C/c2cccs2)C1=O`, the EC50 is > 35 µM (inactive).

Turning to `c1ccc(-c2nnc3sc(-c4cc5ccccc5o4)nn23)cc1`, the EC50 is > 35 µM (inactive).

With `Cc1ccc2[nH]c3c(=O)n(CC(=O)NCCCN(C)Cc4ccccc4)ncc3c2c1`, the EC50 is > 35 µM (inactive).

As for `O=S(=O)(/C=C/c1ccccc1)N1CCNCC1`, the EC50 was > 35 µM (inactive).

Take `O=C(Nc1cccc(-c2cn3ccccc3n2)c1)C1CC1`: the EC50 is > 35 µM (inactive).

For `Oc1ccc(/C=N/Nc2ccc(C(F)(F)F)cn2)c(O)c1`, the concentration for a half-maximal effect (EC50) is 29.8 µM.

`COc1ccc(CNC(=O)CN(CC2CCCO2)C(=O)CNS(=O)(=O)c2ccc(C)cc2)cc1` (stereo not drawn): the EC50 was > 35 µM (inactive).

Consider `Cc1cc(NC(=O)CCN2C(=O)/C(=C\c3ccccc3)SC2=S)no1`, for which the EC50 was 34.4 µM.

With `CC(C)C(=O)NC(c1ccc(Cl)cc1Cl)c1ccc2cccnc2c1O` (stereo not drawn), the EC50 was 4.88 µM.

Take `CC(C)(C)NC(=O)COC(=O)c1ccc(Cl)nc1`: the EC50 was > 35 µM (inactive).

With `O=C(N/N=C\c1cc(Cl)ccc1O)c1ccc(S(=O)(=O)N2CCCCC2)cc1`, the EC50 was 5.75 µM.

In the case of `CC[C@@]1(O)C(=O)OCc2c1cc1n(c2=O)Cc2cc3c(N)cccc3nc2-1`, the EC50 was > 35 µM (inactive).

Turning to `CC(=O)Nc1ccc2nc(NC(=O)COc3ccccc3C)sc2c1`, the EC50 was > 35 µM (inactive).

For `CCCCCCC1CCC(c2nc(-c3ccncc3)no2)CC1` (stereo not drawn), the EC50 was > 35 µM (inactive).

Turning to `OCCCNc1c2ccccc2nc2ccccc12`, the EC50 was > 35 µM (inactive).
